Measured values published in patent publication US11129867B2, “Method of treating cancer cells” (priority 2017, dated 2021).
Where a SMILES comes first, the peptide text is derived from it. The star is where a group is joined. X1 = CN(C)c1ccc2c(-c3ccc(C(=O)*)cc3C(=O)[O-])c3ccc(=[N+](C)C)cc-3oc2c1

Key:
HeLa-Kyoto = test: WST-8 cell viability assay, HeLa-Kyoto; assay type: cell-based; conditions: HeLa-Kyoto (cervical cancer), different concentrations, 48 hours, FIG. 3
Protocol: (§1) Human oral squamous cell carcinoma (OSCC) cell lines, Ca922, OSC20, OECM-1, OC3, CGHNC9, HSC3, plus A549, MDA-MB-231, MCF7, Huh7, HeLa-Kyoto, Detroit 562, H520, H2170, and 293T cells were used in this study. Ca922, CGHNC9, MDA-MB-231, MCF7, Huh7, HeLa-Kyoto, Detroit 562, and 293T cells were all cultured in high-glucose Dulbecco's Modified Eagle Medium (DMEM). OSC20 and HSC3 cells were cultured in Dulbecco's Modified of Eagle's Medium/Ham's F-12 50/50 Mix (1:1). OECM-1, A549, H520, and H2170 cells were grown in RPMI-1640 medium. All culture media were supplemented with 10% fetal bovine serum (FBS) and 1% penicillin-streptomycin. OC3 cells were cultured in 1:1 DMEM/KSFM (keratinocyte serum-free medium) with supplied supplement of Bovine pituitary extract (BPE) and epidermal growth factor (EGF) followed by instruction. All the cells in this study were maintained at 37° C. in humidified atmosphere containing 5% CO2.
(§2) WST-8 [2-(2-methoxy-4-nitrophenyl)-3-(4-nitrophenyl)-5-(2,4-disulfophenyl)-2H-tetrazolium, monosodium salt] cell viability assay
Cells were seeded into 96 well plate and incubated at 37° C. overnight. […] The amount of formazan produced is proportional to the number of live cells and is expressed as cellular viability. […] Cell viability was measured at the absorbance of 450/655 nm wavelength by ELISA reader.

Caspase-7 = test: Western blotting of Caspase-7; assay type: cell-based, human; conditions: Ca922, 25 μM, FIG. 11B
Protocol: (§3) Protein lysate of Ca922 cells treated with TMR-GBP 25 μM were blotted with antibodies against Caspase-3, Caspase-7, Caspase-9 and Poly (ADP-ribose) polymerase (PARP). Representative blots are shown.
(§4) Western Blotting Analysis
(§5) Cells were harvested by trypsion or scratch and lysed in RIPA buffer (50 mM Tris-HCl, pH 7.4, 150 mM NaCl, 0.1% SDS, 0.5% Sodium deoxycholate, 1% NP-40) supplemented with 1× protease inhibitor cocktail. Sample was incubated on ice for 30 minutes and scraped every 10 minutes. Centrifuge at 13,000 rpm at 4° C. for 15 minutes, then collect supernatant for analysis. Protein concentration was determined by Bradford assay. First, 5× Bradford assay dye reagent was diluted into […], and mixture with RIPA (as standard) or samples. Concentration was obtained by spectrophotometer measurement. Equal volume of 2× laemmli buffer containing β-ME was added into protein lysate for goal concentration. Protein samples were boiled at 100° C. for 15 minutes and resolved by 10% SDS-PAGE gel or 4%-15% gradient gel. Then, transfer to PVDF membrane by 100V or 110V voltage for 1 hour. […] Washing the membrane three times with 1×PBST for every 5 minutes, protein band was detected by modified ECL (ddH2O, […] Tris pH8.0, 200 μM p-coumaric acid, 1.25 mM luminal, 0.001% H2O2) with ImageQuant LAS 4000 digital imaging system.

Bax = test: Western blotting of pro-apoptotic protein Bax; assay type: cell-based, human; conditions: Ca922, 25 μM, indicated time points, FIG. 6C
Protocol: Protein expression of pro-apoptotic protein Bax were examined in Ca922 cells treated with 25 μM TMR-GBP for indicated time points. The relative protein level was presented below the blot as ratios which was normalized to Bax value of control cells (0 hour).
as §4, §5

Caspase-3 = test: Western blotting of Caspase-3; assay type: cell-based, human; conditions: Ca922, 25 μM, treatment time up to 48 hours, FIG. 11B, 11C
Protocol: as §3
Ca922 cells were treated with TMR-GBP and collected at indicated time points. Then blotted for Caspase-3 to observe whether TMR-GBP triggered […] apoptosis pathway.
as §4
as §5, with “concentration.” for “concentration. Protein samples were boiled at 100° C. for 15 minutes and resolved by 10% SDS-PAGE gel or 4%-15% gradient gel. Then, transfer to PVDF membrane by 100V or 110V voltage for 1 hour.”

Ca922 cells = test: WST-8 cell viability assay, Ca922; assay type: cell-based, human; conditions: for cytotoxicity (cell viability): 48 hours
Protocol: as §1, §2
Cells were seeded into 96 well plate and incubated at 37° C. overnight. Endpoint measures of TMR-GBP or drugs were performed by water soluble tetrazolium salt (WST-8)-based colorimetric assay in triplicate which measures the metabolic conversion of WST-8 into formazan by mitochondrial dehydrogenases present in viable cells. The amount of formazan produced is proportional to the number of live cells and is expressed as cellular viability. When time was up, media were removed and supplemented with WST-8 cell viability reagent-contained cell culture medium (1:10) and incubated at 37° C. for 2 hours. Besides, three wells with WST-8-dissolved medium only (without cells) were reserved as a background control. Cell viability was measured at the absorbance of 450/655 nm wavelength by ELISA reader.

CN(C)c1ccc2c(-c3ccc(C(=O)N[C@@H](CC(N)=O)C(=O)N[C@@H](Cc4ccc(O)cc4)C(=O)N[C@@H](CCCNC(=N)N)C(=O)N[C@@H](Cc4c[nH]c5ccccc45)C(=O)N[C@@H](CCCNC(=N)N)C(=O)N[C@@H](CS)C(=O)N[C@@H](CCCCN)C(=O)N[C@@H](CC(N)=O)C(=O)N[C@@H](CCC(N)=O)C(=O)N[C@@H](CC(N)=O)C(=O)O)cc3C(=O)[O-])c3ccc(=[N+](C)C)cc-3oc2c1 [TMR-GBP] (X1-NYRWRCKNQN-OH; N-terminus and C-terminus assumed)
cell viability (HeLa-Kyoto): not markedly affected
activation of caspase-7 (Caspase-7): did not activate
protein expression of Bax (Bax): increased
activation of caspase-3 (Caspase-3): did not activate
cytotoxicity (cell viability) (Ca922 cells; Ca922 (oral cancer), different concentrations, FIG. 5): could induce cytotoxicity
TMR-GBP induced cytotoxicity after NAC pretreatment (Ca922 cells; Ca922, NAC pretreated 2 hours, then TMR-GBP 0, 12.5, 25 or 50 μM for 48 hours, FIG. 8B): partially suppressed by NAC
TMR-GBP induced cytotoxicity, dependence on calcium (Ca922 cells; Ca922, calcium chelators BAPTA-AM, EGTA pretreated 2 hours, then TMR-GBP 48 hours, FIG. 8B): independent of calcium release
cytotoxicity (cell viability) (Ca922 cells; Ca922 cells, 50 μM, FIG. 1): could induce cytotoxicity
